Experimental findings from patent publication US11530213B2, “Naphthyridinone derivatives and their use in the treatment of arrhythmia” (NOVARTIS AG, priority 2016, dated 2022) are described below.

Chain of GIRK1/4 (P48549 whole entry): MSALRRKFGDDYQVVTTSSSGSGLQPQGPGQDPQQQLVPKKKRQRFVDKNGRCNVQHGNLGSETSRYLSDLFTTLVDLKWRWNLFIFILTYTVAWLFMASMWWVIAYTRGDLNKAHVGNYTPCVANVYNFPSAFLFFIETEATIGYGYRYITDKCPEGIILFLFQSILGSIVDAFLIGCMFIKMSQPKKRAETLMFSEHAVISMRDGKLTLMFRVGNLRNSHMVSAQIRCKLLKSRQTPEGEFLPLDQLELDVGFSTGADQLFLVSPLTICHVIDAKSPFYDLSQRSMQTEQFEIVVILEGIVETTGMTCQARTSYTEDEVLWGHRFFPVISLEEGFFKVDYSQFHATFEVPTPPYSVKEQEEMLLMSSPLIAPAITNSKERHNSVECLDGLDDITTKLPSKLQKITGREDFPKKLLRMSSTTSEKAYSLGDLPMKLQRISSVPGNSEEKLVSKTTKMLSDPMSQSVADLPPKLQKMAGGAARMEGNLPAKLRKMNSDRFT
Chain of GIRK1/4 (P48544 whole entry): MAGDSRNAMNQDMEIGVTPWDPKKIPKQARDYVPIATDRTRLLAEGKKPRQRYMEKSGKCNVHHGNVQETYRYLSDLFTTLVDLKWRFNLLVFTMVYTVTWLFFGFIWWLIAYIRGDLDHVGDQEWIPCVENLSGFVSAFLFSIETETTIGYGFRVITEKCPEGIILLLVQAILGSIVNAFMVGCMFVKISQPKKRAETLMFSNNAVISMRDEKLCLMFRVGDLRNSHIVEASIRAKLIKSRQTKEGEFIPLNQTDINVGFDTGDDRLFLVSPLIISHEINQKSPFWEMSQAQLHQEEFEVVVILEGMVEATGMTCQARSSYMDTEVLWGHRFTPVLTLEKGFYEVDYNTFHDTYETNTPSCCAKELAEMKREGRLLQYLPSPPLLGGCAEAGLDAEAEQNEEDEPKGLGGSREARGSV

For this experiment, the target named is GIRK1/4 (Homo sapiens (Human), UniProt P48544+P48549). Kind of experiment: GIRK1/4 inhibition, Quattro (IonWorks) population patch clamp, inward potassium current in GIRK 1/4 HEK293 stable cells (test assay No. 1). The experiment is classed as cell-based. The following applies: percentage of current inhibition normalized to DMSO-only control. How it is done: The activity of a compound according to the present invention can be assessed by the following in vitro method. • 1. Buffers: • a. External buffer: 10 mM NaCl, 50 mM Na Gluconate, 80 mM K Gluconate, 1.8 mM CaCl2, 1 mM MgCl2, 10 mM HEPES, 10 mM Glucose, pH 7.4; osmolality […]. • b. Internal buffer: 30 mM KCl, 100 mM K Gluconate, 1 mM MgCl2, 10 mM HEPES, 1 mM EGTA, 10 mM NaCl, pH 7.2; osmolality […]. • 2. Compounds: • a. Prepare seven-fold compound dilution series (10 mM to 20 uM) in 100% DMSO, in 384-well polypropylene plates. • b. Propafenone (Sigma Aldrich, catalog number P4670) is used as a positive control and DMSO for neutral control • c. Resuspend 1 ul of compounds in DMSO into 65.7 ul external buffer in 384-well polypropylene plate and load into Plate 1 section of Molecular Devices Quattro • 3. Quattro setup: • a. Load 384-well Population Patch Plate (Molecular Devices #9000-0902) into Quattro • b. Fill Quattro F-soak trough with 20% DMSO and 50% EtOH • c. Fill Quattro buffer trough with external buffer • d. Attach internal buffer flask to Quattro internal buffer tubing • e. Attach PBS (Phosphate Buffered Saline, minus Ca^++ and Mg^++, pH7.4) bottle to F-head & E-head wash on Quattro • 4. Antibiotic: • a. Resuspend 5.6 mg amphotericin B (Sigma Aldrich, catalog number A2411) in 175 ul DMSO • b. Add the resulting solution to 50 ml internal buffer, mix and attach to antibiotic tubing port on Quattro • 5. Cells: • a. Use GIRK 1/4 HEK293 stable cells (obtained from ChanTest, 14656 Neo Parkway, Cleveland, Ohio 44128) grown to […] confluency in the following cell culture medium: DMEM containing 10% (v/v) Fetal Bovine Serum, Penicillin/Streptomycin (at “1×” concentration from a 100× stock), 0.5 mg/ml G418 and 0.1 mg/ml Zeocin. • b. Wash cells with PBS (minus Ca^++ and Mg^++), Detach cells using Detachin (Genlantis, 11011 Torreyana, San Diego, Calif. 92121), and resuspend in external buffer (5 ml final volume at 2.0-2.1×10^6 cells/ml) • c. Load into cell trough of Quattro • 6. Assay Protocol: • Quattro is controlled using IonWorks v2 software to perform the following steps: • a. Add 3.5 ul cells plus 3.5 ul external buffer to wells of Quattro Patch Plate • b. Circulate amphotericin B and internal buffer onto cells • c. Apply the following voltage protocol: Pulse 1: 15 mV for 300 milliseconds (ms), followed by Pulse 2: −120 mV for 400 ms, then Pulse 3: −15 mV for 400 ms, and finally Pulse 4: −120 mV to 40 mV over 500 ms (this is a voltage ramp). • d. Measure magnitude of inward potassium current at time point between 1200-1220 ms from start of Pulse 1 (i.e. during the voltage ramp phase). • e. Add 3.5 ul of diluted compounds (or DMSO) to wells and repeat steps c-d (final compound concentrations are 50 uM to 0.1 uM, for potent compounds 0.5 uM to 0.01 uM and each concentration is tested in quadruplicate—i.e. in 4 separate wells). • f. The difference between current magnitude pre vs. post-compound gives a measure of GIRK1/4 inhibition. • 7. Data analysis:
IC50 values are calculated by plotting the percentage of current inhibition (normalized to the DMSO-only control) as a function of compound concentration using standard data analysis software.
For orientation: Patch clamp records ionic current or voltage across a cell membrane.
By IC50 is commonly meant the concentration that inhibits the measured activity by half. High values mean a need for much substance, low ones inhibition by little substance. With `Cc1cc(=O)c2c(NCCc3c[nH]cn3)cncc2n1-c1c(Cl)cc(C#N)cc1Cl` [Example 56, 4-(5-((2-(1H-imidazol-4-yl)ethyl)amino)-2-methyl-4-oxo-1,7-naphthyridin-1(4H)-yl)-3,5-dichlorobenzontrile], the IC50 turned out to be 197 nM.

Compound `O=c1cc(CO)n(-c2c(Cl)cccc2Cl)c2c(Cl)cnc(O)c12` [Example 64, 8-Chloro-1-(2,6-dichlorophenyl)-5-hydroxy-2-(hydroxymethyl)-1,6-naphthyridin-4(1H)-one] registered an IC50 of 970 nM.

Compound `O=c1cc(CO)n(-c2c(Cl)cc(F)cc2Cl)c2c(Cl)cnc(OCCO)c12` [Example 61, 8-Chloro-1-(2,6-dichloro-4-fluorophenyl)-5-(2-hydroxyethoxy)-2-(hydroxymethyl)-1,6-naphthyridin-4(1H)-one] gave an IC50 of 68 nM. Against the preceding compound, the IC50 is about 14-fold lower.

Compound `COc1cc2c(c(OCC(O)CO)n1)c(=O)cc(C)n2-c1c(Cl)cccc1Cl` (stereo not shown) [Example 68, 1-(2,6-Dichlorophenyl)-5-(2,3-dihydroxpropoxy)-7-methoxy-2-methyl-1,6-naphthyridin-4(1H)-one] showed an IC50 of 234 nM.

`Cc1cc(=O)c2c(OCCO)ncc(Cl)c2n1-c1c(Cl)cccc1Cl` [Example 48, 8-chloro-1-(2,6-dichlorophenyl)-5-(2-hydroxyethoxy)-2-methyl-1,6-naphthyridin-4(1H)-one] displayed an IC50 of 9 nM.

`Cc1cc(=O)c2c(OCC(O)COCC(O)CO)ncc(Cl)c2n1-c1c(Cl)cccc1Cl` (stereo not shown) [Example 20, 8-chloro-1-(2,6-dichlorophenyl)-5-(3-(2,3-dihydroxypropoxy)-2-hydroxypropoxy)-2-methyl-1,6-naphthyridin-4(1H)-one] showed an IC50 of 173 nM.

On to `CNc1cc2c(c(OCC(O)CO)n1)c(=O)cc(C)n2-c1c(Cl)cccc1Cl` (stereo not shown) [Example 65, 1-(2,6-Dichlorophenyl)-5-(2,3-dihydroxpropoxy)-2-methyl-7-(methylamino)-1,6-naphthyridin-4(1H)-one], for which inhibition was half-maximal at 390 nM (IC50). Against the preceding compound, the IC50 is about 2.3-fold higher.

The compound `CCc1cc2c(c(OCC(O)CO)n1)c(=O)cc(C)n2-c1c(Cl)cccc1Cl` (stereo not shown) [Example 66, 1-(2,6-Dichlorophenyl)-5-(2,3-dihydroxpropoxy)-7-ethyl-2-methyl-1,6-naphthyridin-4(1H)-one] gave an IC50 of 34 nM.

For `Cc1cc(=O)c2c(OCC(C)(C)O)ncc(Cl)c2n1-c1c(Cl)cccc1Cl` [Example 42, 8-chloro-1-(2,6-dichlorophenyl)-5-(2-hydroxy-2-methylpropoxy)-2-methyl-1,6-naphthyridin-4(1H)-one], 15 nM corresponded to half-maximal inhibition (IC50). Against the preceding compound, the IC50 is about 2.3-fold lower.

The compound `O=c1cc(CO)n(-c2c(Cl)cccc2Cl)c2c(Cl)cnc(OCC(O)CO)c12` (stereo not shown) [Example 3, 8-chloro-1-(2,6-dichlorophenyl)-5-(2,3-dihydroxypropoxy)-2-(hydroxymethyl)-1,6-naphthyridin-4(1H)-one] showed an IC50 of 131 nM. This IC50 lies about 8.7-fold higher than the previous one.

In the case of `Cc1cc(=O)c2c(NOCCO)ncc(Cl)c2n1-c1c(Cl)cccc1Cl` [Example 49, 8-chloro-1-(2,6-dichlorophenyl)-5-((2-hydroxyethoxy)amino)-2-methyl-1,6-naphthyridin-4(1H)-one], half-maximal inhibition (IC50) was put at 42 nM.

In the case of `Cc1cc(=O)c2c(C(C)(O)C(=O)CO)ncc(Cl)c2n1-c1c(Cl)cccc1Cl` (stereo not shown) [Example 89, 8-Chloro-1-(2,6-dichlorophenyl)-5-(2,4-dihydroxy-3-oxobutan-2-yl)-2-methyl-1,6-naphthyridin-4(1H)-one], half-maximal inhibition (IC50) was put at 24 nM.

Take `O=c1cc(CO)n(-c2c(Cl)cccc2Cl)c2c(Cl)cnc(CCC(O)CO)c12` (stereo not shown) [Example 75, 8-Chloro-1-(2,6-dichlorophenyl)-5-(3,4-dihydroxybutyl)-2-(hydroxymethyl)-1,6-naphthyridin-4(1H)-one]: the IC50 is 214 nM. This IC50 is about 8.9-fold higher than that of the compound before.

In the case of `Cc1cc(=O)c2c(OCC3COC(C)(C)O3)ncc(Cl)c2n1-c1c(Cl)cc(C#CCN(C)C)cc1Cl` (stereo not shown) [Example 93, 8-Chloro-1-(2,6-dichloro-4-(3-(dimethylamino)prop-1-yn-1-yl)phenyl)-5-((2,2-dimethyl-1,3-dioxolan-4-yl)methoxy)-2-methyl-1,6-naphthyridin-4(1H)-one], the concentration for half-maximal inhibition (IC50) amounted to 46 nM.

With `Cc1cc(=O)c2c(OCCO)ncc(Cl)c2n1-c1c(Cl)cc(C#CCN2CCOCC2)cc1Cl` [Example 91, 8-Chloro-1-(2,6-dichloro-4-(3-morpholinoprop-1-yn-1-yl)phenyl)-5-(2-hydroxyethoxy)-2-methyl-1,6-naphthyridin-4(1H)-one], it took 40 nM to reach half-maximal inhibition (IC50).

Regarding `CCc1cc2c(c(OCC(O)CO)n1)c(=O)cc(C)n2-c1c(Cl)cccc1CC` (stereo not shown) [Example 67, 1-(2-Chloro-6-ethylphenyl)-5-(2,3-dihydroxypropoxy)-7-ethyl-2-methyl-1,6-naphthyridin-4(1H)-one], half-maximal inhibition (IC50) was put at 168 nM.

In turn, `CC(C)(O)C(O)COc1ncc(Cl)c2c1c(=O)cc(CO)n2-c1c(Cl)cccc1Cl` (stereo not shown) [Example 4, 8-chloro-1-(2,6-dichlorophenyl)-5-(2,3-dihydroxy-3-methylbutoxy)-2-(hydroxymethyl)-1,6-naphthyridin-4(1H)-one] displayed an IC50 of 141 nM.

Compound `Cc1cc(=O)c2c(OCCOCCOCCOCCOCCO)ncc(Cl)c2n1-c1c(Cl)cccc1Cl` [Example 14, 8-chloro-1-(2,6-dichlorophenyl)-5-((14-hydroxy-3,6,9,12-tetraoxatetradecyl)oxy)-2-methyl-1,6-naphthyridin-4(1H)-one] yielded an IC50 of 52 nM.

In the case of `Cc1cc(=O)c2c(OCC(O)CO)ncc(Cl)c2n1-c1c(Cl)cccc1Cl` (stereo not shown) [Example 38, 8-chloro-1-(2,6-dichlorophenyl)-5-(2,3-dihydroxypropoxy)-2-methyl-1,6-naphthyridin-4(1H)-one], inhibition was half-maximal at 8 nM (IC50).

Compound `Cc1cc(=O)c2c(NCC(O)C(=O)NCCO)ncc(Cl)c2n1-c1c(Cl)cccc1Cl` (stereo not shown) [Example 17, 3-((8-chloro-1-(2,6-dichlorophenyl)-2-methyl-4-oxo-1,4-dihydro-1,6-naphthyridin-5-yl)amino)-2-hydroxy-N-(2-hydroxyethyl)propanamide] registered an IC50 of 60 nM.

`Cc1cc(=O)c2c(OCCOCCOCCOCCO)ncc(Cl)c2n1-c1c(Cl)cc(F)cc1Cl` [Example 32, 8-chloro-1-(2,6-dichloro-4-fluorophenyl)-5-(2-(2-(2-(2-hydroxyethoxy)ethoxy)ethoxy)ethoxy)-2-methyl-1,6-naphthyridin-4(1H)-one] came in with a 50% inhibitory concentration (IC50) of 33 nM.

Regarding `CS(=O)(=O)CCNc1ncc(Cl)c2c1c(=O)cc(CO)n2-c1c(Cl)cccc1Cl` [Example 51, 8-chloro-1-(2,6-dichlorophenyl)-2-(hydroxymethyl)-5-((2-(methylsulfonyl)ethyl)amino)-1,6-naphthyridin-4(1H)-one], the IC50 was determined as 41 nM.

The compound `Cc1cc(=O)c2c(NCCNS(C)(=O)=O)cncc2n1-c1c(Cl)cc(C#N)cc1Cl` [Example 22, N-(2-((1-(2,6-dichloro-4-cyanophenyl)-2-methyl-4-oxo-1,4-dihydro-1,7-naphthyridin-5-yl)amino)ethyl)methanesulfonamide] registered an IC50 of 148 nM.

`Cc1cc(=O)c2c(OCC(O)C(C)(C)O)ncc(Cl)c2n1-c1c(Cl)cccc1Cl` (single isomer, unassigned) [Example 59, 8-chloro-1-(2,6-dichlorophenyl)-5-(2,3-dihydroxy-3-methylbutoxy)-2-methyl-1,6-naphthyridin-4(1H)-one] showed an IC50 of 14 nM.

The compound `Cc1cc(=O)c2c(NCCO)cncc2n1-c1c(Cl)cc(C#N)cc1Cl` [Example 27, 3,5-dichloro-4-(5-((2-hydroxyethyl)amino)-2-methyl-4-oxo-1,7-naphthyridin-1(4H)-yl)benzonitrile] displayed an IC50 of 150 nM. This IC50 lies about 11-fold higher than the previous one.
